ChEMBL document CHEMBL5678818, “Discovery of potent SOS1 inhibitors that block RAS activation via disruption of the RAS-SOS1 interaction” (Proc Natl Acad Sci U S A, 2019)

Columns and labels:
[1] = target: Glycogen synthase kinase-3 beta (Homo sapiens) (UniProt P49841); test: Inhibition of GSK3B (unknown origin) assessed as residual activity at 1000 nM by KINOMEscan analysis relative to control
[2] = target: Tyrosine-protein kinase Lyn (Homo sapiens) (UniProt P07948); test: Inhibition of LYN (unknown origin) assessed as residual activity at 1000 nM by KINOMEscan analysis relative to control
Chain of Tyrosine-protein kinase Lyn (Homo sapiens) (P07948 2-512 limits assumed): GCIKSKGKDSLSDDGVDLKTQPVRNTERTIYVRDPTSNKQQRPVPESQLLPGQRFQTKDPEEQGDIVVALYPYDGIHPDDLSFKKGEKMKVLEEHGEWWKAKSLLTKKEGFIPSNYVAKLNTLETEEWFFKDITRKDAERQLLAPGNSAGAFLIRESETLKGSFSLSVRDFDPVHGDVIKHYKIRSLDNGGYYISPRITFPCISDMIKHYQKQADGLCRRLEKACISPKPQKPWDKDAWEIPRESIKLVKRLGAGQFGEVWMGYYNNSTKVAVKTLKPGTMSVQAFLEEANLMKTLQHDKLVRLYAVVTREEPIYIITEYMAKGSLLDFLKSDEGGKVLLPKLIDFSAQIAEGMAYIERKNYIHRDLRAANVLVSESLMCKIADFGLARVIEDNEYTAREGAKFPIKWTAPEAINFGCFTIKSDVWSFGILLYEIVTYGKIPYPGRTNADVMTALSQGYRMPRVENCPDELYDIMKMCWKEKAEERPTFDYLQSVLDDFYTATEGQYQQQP

[3] = target: T1, Mitogen-activated protein kinase 15 (Homo sapiens) (UniProt Q8TD08); test: Inhibition of ERK8 (unknown origin) assessed as residual activity at 1000 nM by KINOMEscan analysis relative to control
T1 sequence (whole entry): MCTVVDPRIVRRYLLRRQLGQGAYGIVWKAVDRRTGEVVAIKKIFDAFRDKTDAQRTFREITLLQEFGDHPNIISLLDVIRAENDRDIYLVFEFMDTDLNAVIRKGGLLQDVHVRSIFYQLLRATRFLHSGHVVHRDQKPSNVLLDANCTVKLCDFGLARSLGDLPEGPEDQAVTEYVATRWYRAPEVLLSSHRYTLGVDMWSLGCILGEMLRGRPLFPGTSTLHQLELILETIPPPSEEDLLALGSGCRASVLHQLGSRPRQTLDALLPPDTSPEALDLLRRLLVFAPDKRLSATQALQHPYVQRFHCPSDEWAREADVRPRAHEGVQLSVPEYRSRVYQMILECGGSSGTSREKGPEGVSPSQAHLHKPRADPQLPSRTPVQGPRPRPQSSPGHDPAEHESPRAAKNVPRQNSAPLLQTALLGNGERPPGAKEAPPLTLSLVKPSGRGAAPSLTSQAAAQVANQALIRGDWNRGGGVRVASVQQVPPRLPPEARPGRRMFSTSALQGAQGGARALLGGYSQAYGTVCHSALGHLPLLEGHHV

[4] = target: Angiopoietin-1 receptor (Homo sapiens) (UniProt Q02763); test: Inhibition of TIE2 (unknown origin) assessed as residual activity at 1000 nM by KINOMEscan analysis relative to control
[5] = target: T2, Uncharacterized serine/threonine-protein kinase SBK3 (Homo sapiens) (UniProt P0C264); test: Inhibition of SgK110 (unknown origin) assessed as residual activity at 1000 nM by KINOMEscan analysis relative to control
T2 sequence (whole entry): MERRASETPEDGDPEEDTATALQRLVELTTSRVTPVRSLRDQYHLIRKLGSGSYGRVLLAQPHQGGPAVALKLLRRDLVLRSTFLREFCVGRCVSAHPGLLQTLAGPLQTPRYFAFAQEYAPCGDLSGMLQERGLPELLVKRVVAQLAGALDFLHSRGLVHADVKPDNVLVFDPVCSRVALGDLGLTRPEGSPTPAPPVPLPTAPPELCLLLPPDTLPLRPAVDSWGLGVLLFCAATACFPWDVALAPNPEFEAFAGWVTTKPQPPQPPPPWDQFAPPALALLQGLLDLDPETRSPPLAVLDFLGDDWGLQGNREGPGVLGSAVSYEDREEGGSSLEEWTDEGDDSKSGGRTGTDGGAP

[6] = target: T3, Ephrin type-B receptor 2 (Homo sapiens) (UniProt P29323); test: Inhibition of EPHB2 (unknown origin) assessed as residual activity at 1000 nM by KINOMEscan analysis relative to control
T3 sequence (whole entry): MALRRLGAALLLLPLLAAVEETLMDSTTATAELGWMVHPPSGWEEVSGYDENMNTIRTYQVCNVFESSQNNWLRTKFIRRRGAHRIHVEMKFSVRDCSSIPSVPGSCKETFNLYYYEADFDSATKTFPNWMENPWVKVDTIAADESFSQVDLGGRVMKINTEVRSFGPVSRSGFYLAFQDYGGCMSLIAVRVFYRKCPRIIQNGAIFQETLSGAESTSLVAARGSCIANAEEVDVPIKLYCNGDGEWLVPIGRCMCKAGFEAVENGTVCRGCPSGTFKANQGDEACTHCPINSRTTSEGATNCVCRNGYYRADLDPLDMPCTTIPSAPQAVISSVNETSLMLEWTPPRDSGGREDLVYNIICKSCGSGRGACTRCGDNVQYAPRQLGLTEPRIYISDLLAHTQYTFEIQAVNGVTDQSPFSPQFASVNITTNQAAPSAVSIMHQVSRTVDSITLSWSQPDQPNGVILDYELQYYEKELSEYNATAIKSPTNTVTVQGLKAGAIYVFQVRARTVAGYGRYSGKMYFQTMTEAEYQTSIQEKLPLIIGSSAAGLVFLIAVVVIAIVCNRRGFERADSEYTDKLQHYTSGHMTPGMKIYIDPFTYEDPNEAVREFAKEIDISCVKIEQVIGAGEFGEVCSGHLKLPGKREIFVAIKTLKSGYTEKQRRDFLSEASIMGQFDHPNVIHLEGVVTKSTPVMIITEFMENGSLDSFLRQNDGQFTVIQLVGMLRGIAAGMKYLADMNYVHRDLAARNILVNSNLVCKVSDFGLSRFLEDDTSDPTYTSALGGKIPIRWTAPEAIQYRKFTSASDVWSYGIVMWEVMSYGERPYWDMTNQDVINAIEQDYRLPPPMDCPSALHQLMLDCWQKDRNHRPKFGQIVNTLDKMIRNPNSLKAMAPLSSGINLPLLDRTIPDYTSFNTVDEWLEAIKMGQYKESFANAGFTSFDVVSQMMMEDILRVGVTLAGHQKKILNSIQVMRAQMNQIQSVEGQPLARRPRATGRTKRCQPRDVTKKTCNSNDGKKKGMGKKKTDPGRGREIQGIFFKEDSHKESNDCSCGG

[7] = tested on: Phosphatidylinositol 4,5-bisphosphate 3-kinase catalytic subunit alpha isoform (Homo sapiens), P42336 [E542K]; test: Inhibition of PIK3CA E542K mutant (unknown origin) assessed as residual activity at 1000 nM by KINOMEscan analysis relative to control
[8] = tested on: Proto-oncogene tyrosine-protein kinase receptor Ret (Homo sapiens), P07949 [V804L]; test: Inhibition of RET V804L mutant (unknown origin) assessed as residual activity at 1000 nM by KINOMEscan analysis relative to control
Chain of Proto-oncogene tyrosine-protein kinase receptor Ret (Homo sapiens), P07949 [V804L] (P07949 whole entry V804L): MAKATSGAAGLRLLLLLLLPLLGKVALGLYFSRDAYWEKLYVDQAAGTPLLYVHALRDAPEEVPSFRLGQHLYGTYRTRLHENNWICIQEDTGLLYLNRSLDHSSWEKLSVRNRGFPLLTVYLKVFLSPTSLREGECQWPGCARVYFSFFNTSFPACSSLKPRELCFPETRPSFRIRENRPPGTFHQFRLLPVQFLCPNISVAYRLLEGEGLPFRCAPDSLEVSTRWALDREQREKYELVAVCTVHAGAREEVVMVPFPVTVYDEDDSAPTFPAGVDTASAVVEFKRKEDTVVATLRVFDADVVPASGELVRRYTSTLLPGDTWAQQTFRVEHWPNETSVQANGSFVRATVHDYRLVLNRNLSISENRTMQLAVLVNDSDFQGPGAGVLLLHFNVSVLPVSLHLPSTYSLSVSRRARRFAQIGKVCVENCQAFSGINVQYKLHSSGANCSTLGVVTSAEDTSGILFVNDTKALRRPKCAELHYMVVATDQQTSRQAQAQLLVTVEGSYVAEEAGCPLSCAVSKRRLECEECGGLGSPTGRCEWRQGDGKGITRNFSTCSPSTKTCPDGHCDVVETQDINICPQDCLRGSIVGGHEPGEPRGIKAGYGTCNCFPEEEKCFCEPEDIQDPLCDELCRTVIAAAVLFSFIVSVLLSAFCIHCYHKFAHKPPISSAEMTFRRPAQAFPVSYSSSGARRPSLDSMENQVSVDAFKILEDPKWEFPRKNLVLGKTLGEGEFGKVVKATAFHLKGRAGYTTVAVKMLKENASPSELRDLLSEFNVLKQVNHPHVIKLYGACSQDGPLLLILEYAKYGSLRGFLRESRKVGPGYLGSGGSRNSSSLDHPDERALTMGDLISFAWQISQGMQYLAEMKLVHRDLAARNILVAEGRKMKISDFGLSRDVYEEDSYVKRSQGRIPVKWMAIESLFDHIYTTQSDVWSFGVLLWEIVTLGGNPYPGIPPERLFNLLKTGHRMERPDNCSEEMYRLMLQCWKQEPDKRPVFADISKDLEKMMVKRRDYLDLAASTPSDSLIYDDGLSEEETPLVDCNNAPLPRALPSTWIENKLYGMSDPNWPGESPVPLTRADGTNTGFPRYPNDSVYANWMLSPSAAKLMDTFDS

[9] = target: Mitogen-activated protein kinase kinase kinase kinase 4 (Homo sapiens) (UniProt O95819); test: Inhibition of MAP4K4 (unknown origin) assessed as residual activity at 1000 nM by KINOMEscan analysis relative to control
Chain of Mitogen-activated protein kinase kinase kinase kinase 4 (Homo sapiens) (O95819 2-1239 limits assumed): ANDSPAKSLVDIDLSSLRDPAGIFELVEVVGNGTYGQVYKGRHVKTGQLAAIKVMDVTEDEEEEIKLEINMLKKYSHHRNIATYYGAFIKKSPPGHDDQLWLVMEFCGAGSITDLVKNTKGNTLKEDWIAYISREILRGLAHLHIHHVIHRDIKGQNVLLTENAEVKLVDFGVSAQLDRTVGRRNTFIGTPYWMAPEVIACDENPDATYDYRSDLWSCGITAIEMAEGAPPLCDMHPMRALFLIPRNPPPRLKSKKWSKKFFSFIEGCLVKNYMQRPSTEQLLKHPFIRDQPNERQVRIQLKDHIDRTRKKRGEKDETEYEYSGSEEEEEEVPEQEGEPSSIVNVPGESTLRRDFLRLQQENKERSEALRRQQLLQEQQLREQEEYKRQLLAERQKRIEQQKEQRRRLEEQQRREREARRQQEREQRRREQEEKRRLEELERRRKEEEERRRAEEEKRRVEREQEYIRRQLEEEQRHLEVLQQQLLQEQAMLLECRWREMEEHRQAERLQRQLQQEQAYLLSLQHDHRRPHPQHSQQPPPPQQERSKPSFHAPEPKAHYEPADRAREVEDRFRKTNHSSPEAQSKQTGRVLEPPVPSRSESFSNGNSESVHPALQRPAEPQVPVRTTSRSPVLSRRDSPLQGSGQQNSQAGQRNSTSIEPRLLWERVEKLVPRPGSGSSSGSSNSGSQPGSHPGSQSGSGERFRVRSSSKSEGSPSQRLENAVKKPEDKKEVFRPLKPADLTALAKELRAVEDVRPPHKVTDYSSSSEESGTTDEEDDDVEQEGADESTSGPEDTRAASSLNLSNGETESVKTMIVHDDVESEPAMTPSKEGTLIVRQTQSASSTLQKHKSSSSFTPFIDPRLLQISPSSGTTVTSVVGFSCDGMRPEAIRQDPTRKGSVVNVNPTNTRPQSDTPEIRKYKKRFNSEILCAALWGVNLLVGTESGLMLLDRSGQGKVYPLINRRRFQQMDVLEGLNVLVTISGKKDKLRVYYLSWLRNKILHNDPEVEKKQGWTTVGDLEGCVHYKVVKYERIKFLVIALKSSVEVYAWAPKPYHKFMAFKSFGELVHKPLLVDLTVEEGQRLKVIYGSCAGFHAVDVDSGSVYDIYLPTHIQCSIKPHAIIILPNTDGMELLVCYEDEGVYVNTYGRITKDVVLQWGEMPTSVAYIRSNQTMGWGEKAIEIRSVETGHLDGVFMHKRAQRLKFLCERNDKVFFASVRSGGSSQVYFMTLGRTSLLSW

[10] = target: Calcium/calmodulin-dependent protein kinase type 1D (Homo sapiens) (UniProt Q8IU85); test: Inhibition of CAMK1D (unknown origin) assessed as residual activity at 1000 nM by KINOMEscan analysis relative to control
Chain of Calcium/calmodulin-dependent protein kinase type 1D (Homo sapiens) (Q8IU85 whole entry, looked up): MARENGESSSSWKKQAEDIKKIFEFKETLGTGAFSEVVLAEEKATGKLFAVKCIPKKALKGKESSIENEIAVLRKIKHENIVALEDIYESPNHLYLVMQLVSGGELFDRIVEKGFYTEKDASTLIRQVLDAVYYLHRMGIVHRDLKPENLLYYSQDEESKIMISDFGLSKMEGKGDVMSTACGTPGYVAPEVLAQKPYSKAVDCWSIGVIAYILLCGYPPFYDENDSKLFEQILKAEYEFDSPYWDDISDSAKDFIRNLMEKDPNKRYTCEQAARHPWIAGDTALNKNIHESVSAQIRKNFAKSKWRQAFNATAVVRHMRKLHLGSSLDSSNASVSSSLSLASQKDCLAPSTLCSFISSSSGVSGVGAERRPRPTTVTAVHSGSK

[11] = target: Fibroblast growth factor receptor 2 (Homo sapiens) (UniProt P21802); test: Inhibition of FGFR2 (unknown origin) assessed as residual activity at 1000 nM by KINOMEscan analysis relative to control
[12] = target: Insulin receptor (Homo sapiens) (UniProt P06213); test: Inhibition of INSR (unknown origin) assessed as residual activity at 1000 nM by KINOMEscan analysis relative to control
Chain of Insulin receptor (Homo sapiens) (P06213 28-758 limits assumed): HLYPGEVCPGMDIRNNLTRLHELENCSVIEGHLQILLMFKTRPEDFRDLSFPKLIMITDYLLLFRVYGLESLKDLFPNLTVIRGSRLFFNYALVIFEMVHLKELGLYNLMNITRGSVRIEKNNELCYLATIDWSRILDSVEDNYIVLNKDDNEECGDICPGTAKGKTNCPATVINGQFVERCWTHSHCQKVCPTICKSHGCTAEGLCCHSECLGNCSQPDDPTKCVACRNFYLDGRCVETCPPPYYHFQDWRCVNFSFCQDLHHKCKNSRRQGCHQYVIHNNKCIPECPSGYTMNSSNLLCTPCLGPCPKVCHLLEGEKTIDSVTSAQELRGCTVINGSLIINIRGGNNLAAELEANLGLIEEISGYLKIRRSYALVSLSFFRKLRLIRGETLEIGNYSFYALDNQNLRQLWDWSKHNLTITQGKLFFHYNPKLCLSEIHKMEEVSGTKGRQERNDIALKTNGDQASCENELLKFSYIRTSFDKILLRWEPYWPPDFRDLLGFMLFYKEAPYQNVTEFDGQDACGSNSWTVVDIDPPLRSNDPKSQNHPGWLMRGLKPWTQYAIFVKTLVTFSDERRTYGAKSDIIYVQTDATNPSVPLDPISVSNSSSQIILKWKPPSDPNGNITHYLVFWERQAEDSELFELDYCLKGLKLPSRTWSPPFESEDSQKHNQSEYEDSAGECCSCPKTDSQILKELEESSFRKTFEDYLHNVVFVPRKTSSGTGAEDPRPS
Chain of Insulin receptor (Homo sapiens) (P06213 763-1382 limits assumed): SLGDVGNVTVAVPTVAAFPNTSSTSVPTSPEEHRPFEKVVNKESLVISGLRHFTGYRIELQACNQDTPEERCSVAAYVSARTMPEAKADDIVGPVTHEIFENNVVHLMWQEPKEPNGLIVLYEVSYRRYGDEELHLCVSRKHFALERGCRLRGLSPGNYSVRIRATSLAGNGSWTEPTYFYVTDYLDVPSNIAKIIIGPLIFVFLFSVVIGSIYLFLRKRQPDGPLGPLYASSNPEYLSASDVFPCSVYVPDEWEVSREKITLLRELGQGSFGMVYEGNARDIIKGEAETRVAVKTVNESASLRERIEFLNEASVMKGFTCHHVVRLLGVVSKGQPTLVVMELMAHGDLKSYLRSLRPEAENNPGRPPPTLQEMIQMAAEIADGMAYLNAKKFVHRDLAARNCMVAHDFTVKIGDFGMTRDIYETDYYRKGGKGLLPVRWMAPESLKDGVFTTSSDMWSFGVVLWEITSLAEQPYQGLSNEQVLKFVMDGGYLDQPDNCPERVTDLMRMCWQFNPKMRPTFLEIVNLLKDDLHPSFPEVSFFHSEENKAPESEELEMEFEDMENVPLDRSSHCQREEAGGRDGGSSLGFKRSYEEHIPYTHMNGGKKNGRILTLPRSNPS

Chain of Glycogen synthase kinase-3 beta (Homo sapiens) (P49841 whole entry, looked up): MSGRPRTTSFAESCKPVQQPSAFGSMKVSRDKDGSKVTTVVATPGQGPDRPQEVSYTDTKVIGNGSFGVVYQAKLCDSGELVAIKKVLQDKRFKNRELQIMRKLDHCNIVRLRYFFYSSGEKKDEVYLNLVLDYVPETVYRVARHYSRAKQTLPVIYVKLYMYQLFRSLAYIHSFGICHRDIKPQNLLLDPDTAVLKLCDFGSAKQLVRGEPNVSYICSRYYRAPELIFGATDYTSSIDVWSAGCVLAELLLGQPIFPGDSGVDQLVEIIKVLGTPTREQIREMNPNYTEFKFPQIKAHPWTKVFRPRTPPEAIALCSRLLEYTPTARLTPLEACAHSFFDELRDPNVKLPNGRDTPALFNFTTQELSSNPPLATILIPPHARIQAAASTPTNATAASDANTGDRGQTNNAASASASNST

Structure (SMILES) | Activity [1] [%] | Activity [2] [%] | Activity [3] [%] | Activity [4] [%] | Activity [5] [%] | Activity [6] [%] | Activity [7] [%] | Activity [8] [%] | Activity [9] [%] | Activity [10] [%] | Activity [11] [%] | Activity [12] [%]
COc1cc2nc(C)nc(N[C@H](C)c3cccc(-c4cn[nH]c4)c3)c2cc1OC | 61 | 100 | 60 | 81 | 100 | 98 | 78 | 65 | 98 | 68 | 67 | 80
COc1cc2ncnc(N[C@H](C)c3cccc4ccccc34)c2cc1OC | 100 | 91 | 100 | 100 | 100 | 94 | 96 | 100 | 100 | 81 | 100 | 82
